# From PMC10674565 (Pharmaceuticals, 2023)
# Experiments:
# SLCO1B1 = assay: Effect on expression of SLCO1B1 in HepG2 cells (Western blot); format: cell-based, human; settings: 1, 10, and 100 µM, 24 h incubation
# Procedure: The HepG2 cell line was purchased from American Type Culture Collection (Institute of Cytology, Russian Academy of Sciences, Moscow, Russia). Cells were cultured in Dulbecco’s modified Eagle’s medium containing 15% fetal bovine serum, 2 mM l-glutamine, 100 units/mL penicillin G, and 100 μg/mL streptomycin in an atmosphere of 5% CO2 at 37 °C on a 24-well plate until a monolayer was formed. HepG2 cells were used to test the effect of EMHPS on the expression of SLCO1B1.
# To test the effect of EMHPS on the expression of ABCB1 and SLCO1B1, Caco-2 or HepG2 cells, respectively, were cultured on a 6-well plate. EMHPS was used at concentrations of 1, 10, and 100 µM, and the duration of exposure was 24 h. After the incubation, the cells were removed from the surface of the wells with a trypsin–EDTA solution (0.25% trypsin and 0.2% EDTA, Sigma-Aldrich, St. Louis, MO, USA).
# The expression levels of ABCB1 and SLCO1B1 were analyzed via Western blot.
# Cells were lysed with NP40 Cell Lysis Buffer Thermo (Thermo Fisher Scientific) with protease inhibitors (Sigma Aldrich, St. Louis, MO, USA) for 30 min at +4 °C with constant stirring at a rate of 10^7 cells per 100 µL of buffer. Protein concentrations were quantified with the Pierce Coomassie Plus Assay Kit (Thermo Fisher, Rockford, IL, USA). […]
# CYP3A4 isoenzyme = test system: CYP3A4 isoenzyme; parameters: method as in PMID 21254598; settings: cited from earlier work
# [1] = Cytotoxicity (MTT) assay, Caco-2 cells; format: cell-based; settings: human, 1–500 µM, read-out: viability compared to the control
# Procedure: Caco-2 and HEK93 cells were incubated in a 96-well microplate (10^4 cells per well) with different concentrations (1, 10, 50, 100, and 500 µM) of EMHPS for 24 h. At the end of incubation, 20 μL of 0.5% 3-(4,5-dimethylthiazol-2-yl)-2,5-diphenyltetrazolium bromide (MTT) was added to each well, followed by a 2 h incubation. The MTT solution was then aspirated and 200 μL of […] dimethyl sulfoxide solution (PanEko) was added. Absorption was recorded after 10 min at 530 nm with a Stat Fax 2100 plate reader (Awareness Technology, Palm City, FL, USA). The survival of cells in the presence of EMHPS was calculated according to the equation: (optical density (OD) of test wells − OD of medium)/(OD of control wells − OD of medium) × 100%, where OD is the optical density.
# [2] = test system: hemispheric ischemic stroke; parameters: method as in doi:10.1007/s11055-018-0652-y; settings: 151 patients with hemispheric ischemic stroke; cited from earlier work
# [3] = parameters: method as in earlier work; settings: blood plasma; cited from earlier work
# ABCB1 = ABCB1 (Homo sapiens, UniProt P08183); assay: EMHPS transport through the Caco-2 cells monolayer (ABCB1 substrate test); format: in vitro ADME; parameters: Caco-2 cells were used to test the effect of EMHPS on the expression and activity of ABCB1; endogenous in cells; host or cells: Caco-2
# ABCB1, sequence (P08183 whole entry): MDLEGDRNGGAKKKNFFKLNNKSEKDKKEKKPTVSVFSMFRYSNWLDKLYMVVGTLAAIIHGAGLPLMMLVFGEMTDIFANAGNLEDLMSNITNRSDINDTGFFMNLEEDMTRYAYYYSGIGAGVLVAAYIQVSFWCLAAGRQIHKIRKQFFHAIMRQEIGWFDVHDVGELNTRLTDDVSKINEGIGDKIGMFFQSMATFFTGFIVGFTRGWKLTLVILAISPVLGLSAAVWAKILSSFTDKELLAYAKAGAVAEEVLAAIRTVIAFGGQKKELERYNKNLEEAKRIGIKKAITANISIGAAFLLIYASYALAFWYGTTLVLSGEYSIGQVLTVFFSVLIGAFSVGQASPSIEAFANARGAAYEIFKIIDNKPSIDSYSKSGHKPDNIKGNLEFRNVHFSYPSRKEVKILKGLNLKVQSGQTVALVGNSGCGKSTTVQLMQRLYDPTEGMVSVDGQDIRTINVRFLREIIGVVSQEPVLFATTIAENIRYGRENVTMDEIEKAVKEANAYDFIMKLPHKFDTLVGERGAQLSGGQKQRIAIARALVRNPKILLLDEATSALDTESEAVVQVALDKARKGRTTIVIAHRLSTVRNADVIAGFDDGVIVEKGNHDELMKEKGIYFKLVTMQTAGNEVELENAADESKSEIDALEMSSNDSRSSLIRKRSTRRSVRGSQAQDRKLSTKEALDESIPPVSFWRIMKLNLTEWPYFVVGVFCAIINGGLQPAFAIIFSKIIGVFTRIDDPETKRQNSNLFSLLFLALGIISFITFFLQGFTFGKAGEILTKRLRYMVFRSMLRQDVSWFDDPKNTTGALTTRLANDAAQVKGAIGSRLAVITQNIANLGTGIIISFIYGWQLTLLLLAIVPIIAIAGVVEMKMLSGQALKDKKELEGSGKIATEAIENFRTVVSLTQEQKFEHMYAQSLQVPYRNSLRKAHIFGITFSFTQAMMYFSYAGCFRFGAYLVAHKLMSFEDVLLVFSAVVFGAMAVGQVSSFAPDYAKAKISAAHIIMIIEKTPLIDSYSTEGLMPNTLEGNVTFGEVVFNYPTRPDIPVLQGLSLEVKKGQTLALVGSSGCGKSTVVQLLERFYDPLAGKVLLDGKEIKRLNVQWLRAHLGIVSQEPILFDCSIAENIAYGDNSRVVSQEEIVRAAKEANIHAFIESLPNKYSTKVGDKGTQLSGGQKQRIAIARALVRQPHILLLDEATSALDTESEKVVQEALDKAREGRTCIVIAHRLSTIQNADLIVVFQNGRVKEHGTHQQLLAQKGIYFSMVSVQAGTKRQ
# Procedure: The medium was changed every 2–3 days.
# The medium in chambers was removed and the cell monolayers were washed twice in warm (37 °C) transport medium (Hanks‚ balanced salt solution containing 10 mM HEPES and 1% dimethylsulfoxide (DMSO)). […] Chamber–recipient was filled with transport medium without EMHPS. At 60, 120, and 180 min, 100 μL samples were taken from the recipient chamber and the drug concentration was analyzed. EMHPS transport was assessed in the absorptive (apical to basolateral, a-b) and secretory (b-a) directions.
# The apparent permeability (Papp) of EMHPS through Caco-2 monolayers was calculated using Equation (1). (1) Papp=dQ/dt×1/A×C0
# A, membrane surface area (1.12 cm^2); C0, EMHPS concentration at t = 0 µM; and dQ/dt, amount of EMHPS transported within a given time period µM/s.
# The ratio of Papp (b-a) and Papp (a-b), known as the efflux ratio (ER), was calculated in accordance with the following Equation (2):(2) ER=Papp b-a/Papp a-b
# The ER was used as a marker for permeability through Caco-2 cell monolayers.
# EMHPS concentrations in the transport medium (transport experiments with Caco-2 cells) were analyzed using HPLC-UV (HPLC chromatograph Stayer) with UV detection at a wavelength of 296 nm. The sample (50 µL) was diluted in 150 µL of the mobile phase, and 100 µL of the resulting solution was injected into the chromatograph. In the analysis, a Beckman Coulter 4.6 × 150 mm, 5 μm chromatographic column was used.
# The separation temperature was 35 °C. The flow rate was 0.8 mL/min. Mobile phase composition: acetonitrile and water in a 20:80 v/v ratio with the addition of acetic acid to pH 3.25. The retention time of EMHPS under these conditions was 5.5 min.
# [4] = human, EMHPS 10 µM, Caco-2 monolayer, M ± SD
# [5] = human, EMHPS 100 µM, Caco-2 monolayer, M ± SD
# [6] = human, EMHPS 250 µM, Caco-2 monolayer, M ± SD
smiles,measurement,setting,value
"CCc1nc(C)ccc1O.O=C(O)CCC(=O)O [EMHPS, 2-Ethyl-6-methyl-3-hydroxypyridine succinate]",effect on expression of SLCO1B1,SLCO1B1,did not significantly affect
same,effect on CYP3A4 isoenzyme,CYP3A4 isoenzyme,inducer
same,viability at 24 h,[1],85 to 105%
same,neurological status compared with the placebo,[2],improved the neurological status
same,Cmax,[3],390 nM
same,substrate of ABCB1,"ABCB1; Caco-2 monolayer, 10, 100, and 250 µM",not a substrate of ABCB1
same,"Papp A→B at 180 min, 10 µM",ABCB1; [4],7.66 ×10⁻⁶ cm/s
same,"Papp B→A at 180 min, 10 µM",ABCB1; [4],7.56 ×10⁻⁶ cm/s
same,"efflux ratio at 180 min, 10 µM","ABCB1; human, EMHPS 10 µM, Caco-2 monolayer, M ± SD, read-out: ER (Papp b-a/Papp a-b)",0.99 ± 0.323
same,"Papp A→B at 180 min, 100 µM",ABCB1; [5],7.05 ×10⁻⁶ cm/s
same,"Papp B→A at 180 min, 100 µM",ABCB1; [5],6.63 ×10⁻⁶ cm/s
same,"efflux ratio at 180 min, 100 µM","ABCB1; human, EMHPS 100 µM, Caco-2 monolayer, M ± SD, read-out: ER (Papp b-a/Papp a-b)",0.94 ± 0.039
same,"Papp A→B at 180 min, 250 µM",ABCB1; [6],22.3 ×10⁻⁶ cm/s
same,"Papp B→A at 180 min, 250 µM",ABCB1; [6],16.5 ×10⁻⁶ cm/s
same,"efflux ratio at 180 min, 250 µM","ABCB1; human, EMHPS 250 µM, Caco-2 monolayer, M ± SD, read-out: ER (Papp b-a/Papp a-b)",0.75 ± 0.26
same,efflux ratio at 180 min,"ABCB1; human, all concentrations (10, 100, and 250 µM), Caco-2 monolayer, read-out: ER (Papp b-a/Papp a-b)",~1
